Measurements as given in US20220026414A1, “CELL-BASED BIOIDENTITY TEST FOR INSULIN” (Merck Sharp & Dohme Corp., priority 2018, published 2022).

Tested on: human G6PC promoter luciferase reporter in H4IIE rat hepatoma cells
Assay: H4IIE G6P-Luc reporter assay (luciferase under control of the G6PC promoter, clone C17-2)
Assay type: cell-based
Conditions: for Geometric mean of measured relative potency: pre-qualification study
Description: The H4IIE G6P-Luc C17-2 stable cell line was generated by stably expressing Luciferase reporter gene under the control of G6PC promoter via lentivirus technology. Briefly, the human G6PC promoter −1227/+57 sequence (SEQ ID NO: 1) was synthesized and subcloned into pLenti-NFAT-Luc vector to replace NFAT promoter. Lentivirus was generated comprising the construct and H4IIE parental cells were transduced with the lentivirus and screened with the selection antibiotic Hygromycin B. The resulting stable pool cells were validated by quantitative polymerase chain reaction (qPCR) and luciferase assay. The initial work of generating a H4IIE G6P-Luc stable cell line was outsourced to GenScript, Piscataway, N.J. USA. The stable cell pool was re-cloned in-house with limiting dilutions to identify additional clones. H4IIE_G6P-Luc C17-2 is a single clone stable cell line selected for its high assay window (difference in fluorescence detected in a sample containing 1 nM insulin versus fluorescence detected in a sample containing no insulin) and fast growth rate.
The H4IIE_G6P-Luc_C17-2 cells were cultured in Dulbecco's Modified Eagle's medium (DMEM), supplemented with 10% fetal bovine serum (FBS), 1× penicillin-streptomycin, and 0.3 mg/mL Hygromycin B. […] 25 μL insulin titration was aliquoted into the wells of a solid white 96-well tissue-culture treated assay plate. […] Afterwards, […] of ONE-GLO luciferase regent was added to the assay plate. After 10 minutes incubation at room temperature, luminescence signal was read on the EnVision plate reader (Perkin Elmer, Waltham, Mass. USA).

Row | Substance | inhibition of luciferase reporter expression (top two clones (C17, C58), overnight treatment compared with seven-hour treatment (FIG. 1C)) | inhibition of luciferase reporter expression (clone C17-2, 7-hour treatment (FIG. 2A)) | inhibition of luciferase expression (clone C17-2, lower amounts of FBS in assay medium (FIG. 2C)) | inhibition of luciferase reporter expression (clone C17-2, overnight treatment (17-hours) (FIG. 2A)) | dose response curve (clone C17-2 after 29 cell passages (P29) (FIG. 2D)) | Geometric mean of measured relative potency (target relative potency 50% of reference material, N=12) | Geometric mean of measured relative potency (target relative potency 71% of reference material, N=12) | Geometric mean of measured relative potency (target relative potency 100% of reference material, N=24) | Geometric mean of measured relative potency (target relative potency 141% of reference material, N=12) | Geometric mean of measured relative potency (target relative potency 200% of reference material, N=12)
1 | recombinant human insulin: NOVOLIN (recombinant human insulin) purchased from Novo Nordisk | significantly better inhibition |  |  |  |  |  |  |  |  | 
2 | Insulin glargine |  | mild inhibition | Less inhibition of luciferase expression | robust inhibition | well-formed dose response curve | 51 | 68 | 103 | 132 | 196
